Test results as given in article PMC9865188 (Pharmaceutics, 2023).
Read-outs that look alike come from different tables or passages of the source.

Legend:
[1] = Pharmacokinetic study in Sprague Dawley rats (oral gavage); type: in vivo; conditions: for concentration at 15 min / Cmax / AUC(0-t) / bioavailability / half-life: male, rat, plasma; for concentration at 15 min / Cmax: Sprague Dawley; for concentration at 15 min: oral, Etoposide C15min; for Cmax / AUC(0-t) / bioavailability / half-life: po; for Cmax: Etoposide Cmax; for AUC(0-t) / bioavailability / half-life: Sprague-Dawley; for AUC(0-t): Etoposide AUC0–6h; for bioavailability: Etoposide bioavailability; for half-life: Etoposide t½
Description: The study was conducted according to the European Convention for the Protection of Vertebrate Animals used for Experimental and other Scientific Purposes (ETS no. 123) and Belgian law controlling the experiments on animals (Royal Decree of 29 May 2013 for the protection of laboratory animals). Animals were allowed minimum five days to acclimatise upon arrival from the supplier, and they were housed in polysulphone cages (58 × 52 × 20 cm) in groups of six provided with wooden sticks for enrichment. Animals had free access to Safe 04 Maintenance Diet (Safe, Rosenberg, Germany) and water during acclimatisation and during the study.
Male Sprague Dawley rats (Charles River, Dortmund, Germany) weighing 293–358 g were randomly assigned into six groups of six animals. Formulations were prepared as clear solutions in 40% v/v ethanol–water and 10 mL/kg was administered to each animal by oral gavage. […] Plasma samples were taken by tail vein puncture with a needle followed by collection in 32–64 µL micro haematocrit tubes (Vitrex Medical, Herlev, Denmark) at times 15, 30, and 45 min and 1, 2, 3, 4, and 6 h. Samples were centrifuged, and plasma was transferred into 10 µL end-to-end pipettes (Vitrex Medical, Herlev, Denmark) and immediately frozen at −80 °C until bioanalysis. Immediately after the study, animals were euthanised according to the principles of euthanasia stated in the AVMA Guidelines for the Euthanasia of Animals (American Veterinary Medical Association, 2020). Plasma samples were analysed by a previously described qualified LC-MS/MS method.
Pharmacokinetic parameters were calculated individually for each animal subject and pooled for statistical analysis. The plasma concentration at 15 min (C15min) was reported as an average of the plasma concentration of the six animals in each group. […] Elimination rate constants (ke) were calculated by linear regression of the linear part of the ln(plasma concentration) versus time profiles, and plasma half-life (t½) was calculated from ke:(3) t½=ln (2)/ke

[2] = target: P-gp (Homo sapiens, UniProt P08183); assay: Transcellular etoposide permeability across Caco-2 cell monolayers; conditions: Caco-2, spike method, 2.5 nM zosuquidar vs 2.5 nM zosuquidar + 0.2 µM polysorbate 20
Chain of P-gp (P08183 whole entry): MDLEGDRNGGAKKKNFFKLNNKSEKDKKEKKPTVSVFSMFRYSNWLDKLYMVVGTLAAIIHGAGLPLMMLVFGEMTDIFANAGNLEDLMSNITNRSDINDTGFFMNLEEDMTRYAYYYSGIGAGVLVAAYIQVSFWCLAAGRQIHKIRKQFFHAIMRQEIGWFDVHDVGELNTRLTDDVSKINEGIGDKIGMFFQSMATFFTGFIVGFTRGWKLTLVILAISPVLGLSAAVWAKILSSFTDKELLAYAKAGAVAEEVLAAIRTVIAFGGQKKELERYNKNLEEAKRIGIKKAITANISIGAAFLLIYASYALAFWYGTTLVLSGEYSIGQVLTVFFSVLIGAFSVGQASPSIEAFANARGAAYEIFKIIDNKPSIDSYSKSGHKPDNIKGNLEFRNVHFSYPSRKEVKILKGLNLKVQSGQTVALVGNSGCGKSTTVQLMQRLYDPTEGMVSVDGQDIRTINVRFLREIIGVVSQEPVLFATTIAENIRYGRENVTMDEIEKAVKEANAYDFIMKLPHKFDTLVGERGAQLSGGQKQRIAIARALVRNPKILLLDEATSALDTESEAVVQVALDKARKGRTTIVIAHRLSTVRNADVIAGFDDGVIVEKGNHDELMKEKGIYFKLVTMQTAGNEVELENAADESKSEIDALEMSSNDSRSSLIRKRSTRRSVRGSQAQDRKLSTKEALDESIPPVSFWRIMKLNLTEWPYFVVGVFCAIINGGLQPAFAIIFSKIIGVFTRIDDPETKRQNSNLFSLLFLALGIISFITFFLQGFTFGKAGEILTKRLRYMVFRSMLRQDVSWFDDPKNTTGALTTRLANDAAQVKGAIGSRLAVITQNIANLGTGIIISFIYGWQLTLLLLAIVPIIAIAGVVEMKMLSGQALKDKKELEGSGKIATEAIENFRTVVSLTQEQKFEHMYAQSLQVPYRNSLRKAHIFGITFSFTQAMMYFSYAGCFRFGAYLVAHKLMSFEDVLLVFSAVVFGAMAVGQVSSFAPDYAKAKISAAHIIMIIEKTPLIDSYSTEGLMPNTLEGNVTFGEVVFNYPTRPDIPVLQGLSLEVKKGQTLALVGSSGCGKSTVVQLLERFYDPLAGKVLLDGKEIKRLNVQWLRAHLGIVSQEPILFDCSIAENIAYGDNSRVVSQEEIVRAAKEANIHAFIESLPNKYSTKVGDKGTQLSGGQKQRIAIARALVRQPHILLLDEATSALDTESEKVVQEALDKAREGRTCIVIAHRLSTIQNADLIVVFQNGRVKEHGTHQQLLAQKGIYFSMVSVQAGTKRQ

[3] = cited from earlier work
[4] = group B: etoposide 20 mg/kg + zosuquidar 0.63 mg/kg + 1.0% v/v polysorbate 20 oral
[5] = group D: etoposide 20 mg/kg + zosuquidar 2.0 mg/kg + 5.0% v/v polysorbate 20 oral
[6] = group E: etoposide 20 mg/kg + zosuquidar 6.3 mg/kg + 5.0% v/v polysorbate 20 oral
[7] = group F: etoposide 20 mg/kg + zosuquidar 6.3 mg/kg + 10% v/v polysorbate 20 oral
[8] = 20 mg/kg, group A: etoposide 20 mg/kg + 1.0% v/v polysorbate 20 oral
[9] = 20 mg/kg, group C: etoposide 20 mg/kg + 5.0% v/v polysorbate 20 oral
[10] = 20 mg/kg, group B: etoposide 20 mg/kg + zosuquidar 0.63 mg/kg + 1.0% v/v polysorbate 20 oral
[11] = 20 mg/kg, group D: etoposide 20 mg/kg + zosuquidar 2.0 mg/kg + 5.0% v/v polysorbate 20 oral
[12] = 20 mg/kg, group E: etoposide 20 mg/kg + zosuquidar 6.3 mg/kg + 5.0% v/v polysorbate 20 oral
[13] = 20 mg/kg, group F: etoposide 20 mg/kg + zosuquidar 6.3 mg/kg + 10% v/v polysorbate 20 oral
[14] = group D*: etoposide 20 mg/kg oral alone
[15] = group F*: etoposide 20 mg/kg + zosuquidar 0.63 mg/kg oral
[16] = group G*: etoposide 20 mg/kg + zosuquidar 2.0 mg/kg oral
[17] = group H*: etoposide 20 mg/kg + zosuquidar 6.3 mg/kg oral

Question: For `COc1cc([C@@H]2c3cc4c(cc3[C@@H](O[C@@H]3O[C@@H]5CO[C@@H](C)O[C@H]5[C@H](O)[C@H]3O)[C@H]3COC(=O)[C@H]23)OCO4)cc(OC)c1O` [etoposide], which “Etoposide tmax, median [Q1; Q3]” value ([1]; group A: etoposide 20 mg/kg + 1.0% v/v polysorbate 20 oral) is on record?
Answer: The value was 30 [30;34] min.

Question: What about the “Etoposide tmax, median [Q1; Q3]” value [1, 4] of the same compound?
Answer: Its value is 45 [30;49] min.

Question: What about the “Etoposide tmax, median [Q1; Q3]” value ([1]; group C: etoposide 20 mg/kg + 5.0% v/v polysorbate 20 oral) of the same compound?
Answer: Its value is 30 [26;30] min.

Question: What about the “Etoposide tmax, median [Q1; Q3]” value [1, 5] of the same compound?
Answer: Its value is 38 [30;60] min.

Question: And the “Etoposide tmax, median [Q1; Q3]” value [1, 6]?
Answer: The value was 45 [41;49] min.

Question: What about the “Etoposide tmax, median [Q1; Q3]” value [1, 7] of the same compound?
Answer: Its value is 45 [41;60] min.

Question: What about the “Etoposide t½” value [1, 7] of the same compound?
Answer: Its value is 56.4 ± 2.2 min.

Question: And the concentration at 15 min [1, 8]?
Answer: Its concentration at 15 min is 404 ± 58 ng/mL.

Question: What about the concentration at 15 min [1, 9] of the same compound?
Answer: The concentration at 15 min was 1130 ± 140 ng/mL.

Question: And the concentration at 15 min [1, 4]?
Answer: Its concentration at 15 min is 1140 ± 120 ng/mL.

Question: And the concentration at 15 min [1, 5]?
Answer: Its concentration at 15 min is 1010 ± 100 ng/mL.

Question: And the concentration at 15 min [1, 6]?
Answer: The concentration at 15 min was 923 ± 103 ng/mL.

Question: What about the concentration at 15 min [1, 7] of the same compound?
Answer: The concentration at 15 min was 579 ± 52 ng/mL.

Question: And the Cmax [1, 8]?
Answer: The Cmax was 711 ± 86 ng/mL.

Question: And the Cmax [1, 10]?
Answer: Its Cmax is 1750 ± 160 ng/mL.

Question: And the Cmax [1, 9]?
Answer: The Cmax was 1220 ± 140 ng/mL.

Question: And the Cmax [1, 11]?
Answer: The Cmax was 1430 ± 180 ng/mL.

Question: What about the Cmax [1, 12] of the same compound?
Answer: Its Cmax is 1300 ± 130 ng/mL.

Question: What about the Cmax [1, 13] of the same compound?
Answer: Its Cmax is 1020 ± 70 ng/mL.

Question: What about the AUC(0-t) [1, 8] of the same compound?
Answer: The AUC(0-t) was 921 ± 84 ng·h/mL.

Question: And the AUC(0-t) [1, 10]?
Answer: The AUC(0-t) was 2610 ± 240 ng·h/mL.

Question: And the AUC(0-t) [1, 9]?
Answer: The AUC(0-t) was 1970 ± 240 ng·h/mL.

Question: And the AUC(0-t) [1, 11]?
Answer: Its AUC(0-t) is 3080 ± 380 ng·h/mL.

Question: And the AUC(0-t) [1, 12]?
Answer: Its AUC(0-t) is 2800 ± 200 ng·h/mL.

Question: What about the AUC(0-t) [1, 13] of the same compound?
Answer: Its AUC(0-t) is 2310 ± 160 ng·h/mL.

Question: What about the bioavailability [1, 8] of the same compound?
Answer: The bioavailability was 5.35 ± 0.49%.

Question: And the bioavailability [1, 10]?
Answer: The bioavailability was 15.2 ± 1.4%.

Question: And the bioavailability [1, 9]?
Answer: The bioavailability was 11.5 ± 1.4%.

Question: And the bioavailability [1, 11]?
Answer: The bioavailability was 17.9 ± 2.2%.

Question: And the bioavailability [1, 12]?
Answer: The bioavailability was 16.3 ± 1.2%.

Question: What about the bioavailability [1, 13] of the same compound?
Answer: Its bioavailability is 13.4 ± 1%.

Question: And the half-life [1, 8]?
Answer: Its half-life is 42.4 ± 2.4 min.

Question: What about the half-life [1, 10] of the same compound?
Answer: The half-life was 37.2 ± 1.2 min.

Question: And the half-life [1, 9]?
Answer: Its half-life is 43.3 ± 2 min.

Question: What about the half-life [1, 11] of the same compound?
Answer: Its half-life is 52.9 ± 2.8 min.

Question: What about the half-life [1, 12] of the same compound?
Answer: The half-life was 54.7 ± 4.5 min.

Question: What about the “difference in mean etoposide Papp” value [2] of the same compound?
Answer: The value was “no difference”.

Question: What about the “Etoposide AUC0–6h” value [3, 14] of the same compound?
Answer: Its value is 0.947 ± 0.156 µg·h/mL.

Question: What about the “Etoposide Cmax” value [3, 14] of the same compound?
Answer: The value was 0.390 ± 0.084 µg/mL.

Question: What about the Etoposide bioavailability [3, 14] of the same compound?
Answer: The Etoposide bioavailability was 5.51 ± 0.91%.

Question: What about the “Etoposide tmax, median [Q1; Q3]” value [3, 14] of the same compound?
Answer: Its value is 15 [15;30] min.

Question: And the “Etoposide t½” value [3, 14]?
Answer: The value was 80.8 ± 13.2 min.

Question: And the “Etoposide AUC0–6h” value [3, 15]?
Answer: The value was 2.47 ± 0.44 µg·h/mL.

Question: What about the “Etoposide Cmax” value [3, 15] of the same compound?
Answer: Its value is 1.59 ± 0.29 µg/mL.

Question: What about the Etoposide bioavailability [3, 15] of the same compound?
Answer: Its Etoposide bioavailability is 14.4 ± 2.5%.

Question: What about the “Etoposide tmax, median [Q1; Q3]” value [3, 15] of the same compound?
Answer: The value was 45 [15;45] min.

Question: What about the “Etoposide t½” value [3, 15] of the same compound?
Answer: Its value is 39.3 ± 3.0 min.

Question: What about the “Etoposide AUC0–6h” value [3, 16] of the same compound?
Answer: The value was 3.86 ± 0.50 µg·h/mL.

Question: What about the “Etoposide Cmax” value [3, 16] of the same compound?
Answer: The value was 2.24 ± 0.54 µg/mL.

Question: And the Etoposide bioavailability [3, 16]?
Answer: Its Etoposide bioavailability is 22.4 ± 2.9%.

Question: What about the “Etoposide tmax, median [Q1; Q3]” value [3, 16] of the same compound?
Answer: Its value is 38 [26;60] min.

Question: What about the “Etoposide t½” value [3, 16] of the same compound?
Answer: Its value is 51.4 ± 2.4 min.

Question: And the “Etoposide AUC0–6h” value [3, 17]?
Answer: The value was 4.27 ± 0.47 µg·h/mL.

Question: And the “Etoposide Cmax” value [3, 17]?
Answer: Its value is 2.11 ± 0.20 µg/mL.

Question: What about the Etoposide bioavailability [3, 17] of the same compound?
Answer: The Etoposide bioavailability was 24.8 ± 2.7%.

Question: And the “Etoposide tmax, median [Q1; Q3]” value [3, 17]?
Answer: The value was 45 [15;60] min.

Question: And the “Etoposide t½” value [3, 17]?
Answer: Its value is 56.5 ± 4.8 min.
